Converted amounts (≈) assume the structure as drawn.
Assays:
Escherichia coli [1] = assay: Activity at Escherichia coli beta-lactamase SHV-84
Escherichia coli [2] = assay: Ratio of Kcat to Km in Escherichia coli beta-lactamase SHV-84
Escherichia coli [3] = assay: Antimicrobial activity against Escherichia coli DH5alpha in presence of 2 ug/ml clavulanic acid beta-lactamase inhibitor; format: functional
Escherichia coli [4] = assay: Antimicrobial activity against Escherichia coli DH5alpha expressing SHV-84 in presence of 2 ug/ml clavulanic acid beta-lactamase inhibitor; format: functional
Escherichia coli [5] = assay: Antimicrobial activity against Escherichia coli INSRA4590 expressing SHV-84 in presence of 2 ug/ml clavulanic acid beta-lactamase inhibitor; format: functional
Escherichia coli [6] = assay: Antimicrobial activity against Escherichia coli DH5alpha; format: functional
Escherichia coli [7] = assay: Antimicrobial activity against Escherichia coli DH5alpha expressing SHV-1; format: functional
Escherichia coli [8] = assay: Antimicrobial activity against Escherichia coli INSRA4590 expressing SHV-84; format: functional
Escherichia coli [9] = assay: Antimicrobial activity against Escherichia coli DH5alpha expressing SHV-1 in presence of 2 ug/ml clavulanic acid beta-lactamase inhibitor; format: functional
Escherichia coli [10] = assay: Antimicrobial activity against Escherichia coli DH5alpha expressing SHV-84; format: functional
Escherichia coli [11] = assay: Antimicrobial activity against Escherichia coli INSRA4590 expressing SHV-84 in presence of 4 ug/ml Tazobactam beta-lactamase inhibitor; format: functional
Escherichia coli [12] = assay: Antimicrobial activity against Escherichia coli DH5alpha in presence of 4 ug/ml Tazobactam beta-lactamase inhibitor; format: functional
Escherichia coli [13] = assay: Antimicrobial activity against Escherichia coli DH5alpha expressing SHV-84 in presence of 4 ug/ml Tazobactam beta-lactamase inhibitor; format: functional
Escherichia coli [14] = assay: Antimicrobial activity against Escherichia coli DH5alpha expressing SHV-1 in presence of 4 ug/ml Tazobactam beta-lactamase inhibitor; format: functional
[15] = substrate: CC1(C)S[C@@H]2[C@H](NC(=O)Cc3ccccc3)C(=O)N2[C@H]1C(=O)O; assay: (§1) Activity at Escherichia coli beta-lactamase SHV-1
[16] = substrate: CC1(C)S[C@@H]2[C@H](NC(=O)[C@H](C(=O)O)c3ccsc3)C(=O)N2[C@H]1C(=O)O; assay: as §1
[17] = substrate: CO/N=C(\C(=O)N[C@@H]1C(=O)N2C(C(=O)O)=C(COC(C)=O)CS[C@H]12)c1csc(N)n1; assay: as §1
[18] = substrate: CC(C)(O/N=C(\C(=O)N[C@@H]1C(=O)N2C(C(=O)[O-])=C(C[n+]3ccccc3)CS[C@H]12)c1csc(N)n1)C(=O)O; assay: as §1
[19] = substrate: CC1(C)S[C@@H]2[C@H](NC(=O)[C@H](N)c3ccc(O)cc3)C(=O)N2[C@H]1C(=O)O; assay: as §1
[20] = substrate: CC(=O)OCC1=C(C(=O)O)N2C(=O)[C@@H](NC(=O)Cc3cccs3)[C@H]2SC1; assay: as §1
[21] = substrate: CCN1CCN(C(=O)N[C@@H](C(=O)N[C@@H]2C(=O)N3[C@@H]2SC(C)(C)[C@@H]3C(=O)O)c2ccccc2)C(=O)C1=O; assay: as §1
[22] = substrate: CC1(C)S[C@@H]2[C@H](NC(=O)Cc3ccccc3)C(=O)N2[C@H]1C(=O)O; assay: (§2) Ratio of Kcat to Km in Escherichia coli beta-lactamase SHV-1
[23] = substrate: CC1(C)S[C@@H]2[C@H](NC(=O)[C@H](C(=O)O)c3ccsc3)C(=O)N2[C@H]1C(=O)O; assay: as §2
[24] = substrate: CC1(C)S[C@@H]2[C@H](NC(=O)[C@H](N)c3ccc(O)cc3)C(=O)N2[C@H]1C(=O)O; assay: as §2
[25] = substrate: CCN1CCN(C(=O)N[C@@H](C(=O)N[C@@H]2C(=O)N3[C@@H]2SC(C)(C)[C@@H]3C(=O)O)c2ccccc2)C(=O)C1=O; assay: as §2

Row | Molecule | Km (Escherichia coli [1]) | kcat (Escherichia coli [1]) | kcat/Km (Escherichia coli [2]) | MIC (Escherichia coli [6]) | MIC (Escherichia coli [7]) | MIC (Escherichia coli [8]) | MIC (Escherichia coli [10]) | other results
1 | CC1(C)S[C@@H]2[C@H](NC(=O)Cc3ccccc3)C(=O)N2[C@H]1C(=O)O | 64 µM | 611 s⁻¹ | 9.5e+06 M⁻¹ s⁻¹ |  |  |  |  | 
2 | CC1(C)S[C@@H]2[C@H](NC(=O)[C@H](N)c3ccc(O)cc3)C(=O)N2[C@H]1C(=O)O [AMOXICILLIN] | 101 µM | 1040 s⁻¹ | 1.04e+07 M⁻¹ s⁻¹ | ≤ 2 µg/mL | 2050 µg/mL (≈ 5600 µM) | 512 µg/mL (≈ 1400 µM) | 2050 µg/mL (≈ 5600 µM) | MIC (Escherichia coli [3]): ≤ 2 µg/mL; MIC (Escherichia coli [4]): > 64 µg/mL; MIC (Escherichia coli [5]): 64 µg/mL; MIC (Escherichia coli [9]): 8 µg/mL
3 | C[C@H]1[C@H](NC(=O)/C(=N\OC(C)(C)C(=O)O)c2csc(N)n2)C(=O)N1S(=O)(=O)O [AZTREONAM] |  |  |  |  |  | 0.03 µg/mL (≈ 0.0689 µM) | 0.03 µg/mL (≈ 0.0689 µM) | 
4 | CO/N=C(\C(=O)N[C@@H]1C(=O)N2C(C(=O)O)=C(COC(C)=O)CS[C@H]12)c1csc(N)n1 [CEFOTAXIME] |  | < 0.1 s⁻¹ |  | ≤ 0.015 µg/mL | 0.06 µg/mL (≈ 0.132 µM) | 0.125 µg/mL (≈ 0.274 µM) | 0.06 µg/mL (≈ 0.132 µM) | 
5 | CC(C)(O/N=C(\C(=O)N[C@@H]1C(=O)N2C(C(=O)[O-])=C(C[n+]3ccccc3)CS[C@H]12)c1csc(N)n1)C(=O)O [CEFTAZIDIME] |  | < 0.1 s⁻¹ |  | 0.06 µg/mL (≈ 0.11 µM) | 0.5 µg/mL (≈ 0.915 µM) | 0.25 µg/mL (≈ 0.457 µM) | 0.25 µg/mL (≈ 0.457 µM) | 
6 | CC(=O)OCC1=C(C(=O)O)N2C(=O)[C@@H](NC(=O)Cc3cccs3)[C@H]2SC1 [CEPHALOTHIN] | 169 µM | 4 s⁻¹ | 20000 M⁻¹ s⁻¹ | 1 µg/mL (≈ 2.52 µM) | 16 µg/mL (≈ 40.4 µM) | 8 µg/mL (≈ 20.2 µM) | 8 µg/mL (≈ 20.2 µM) | 
7 | CCN1CCN(C(=O)N[C@@H](C(=O)N[C@@H]2C(=O)N3[C@@H]2SC(C)(C)[C@@H]3C(=O)O)c2ccccc2)C(=O)C1=O [PIPERACILLIN] | 68 µM | 406 s⁻¹ | 6e+06 M⁻¹ s⁻¹ | 1 µg/mL (≈ 1.93 µM) | 64 µg/mL (≈ 124 µM) | 64 µg/mL (≈ 124 µM) | 128 µg/mL (≈ 247 µM) | MIC (Escherichia coli [11]): 4 µg/mL; MIC (Escherichia coli [12]): 1 µg/mL; MIC (Escherichia coli [13]): 2 µg/mL; MIC (Escherichia coli [14]): 2 µg/mL
8 | CC1(C)S[C@@H]2[C@H](NC(=O)[C@H](C(=O)O)c3ccsc3)C(=O)N2[C@H]1C(=O)O [TICARCILLIN] | 83 µM | 216 s⁻¹ | 2.5e+06 M⁻¹ s⁻¹ | ≤ 2 µg/mL | 1020 µg/mL (≈ 2660 µM) | > 4100 µg/mL | > 4100 µg/mL | 
9 | Beta-lactamase SHV-1 (Escherichia coli), P0AD63 (protein) MRYIRLCIISLLATLPLAVHASPQPLEQIKLSESQLSGRVGMIEMDLASGRTLTAWRADERFPMMSTFKVVLCGAVLARVDAGDEQLERKIHYRQQDLVDYSPVSEKHLADGMTVGELCAAAITMSDNSAANLLLATVGGPAGLTAFLRQIGDNVTRLDRWETELNEALPGDARDTTTPASMAATLRKLLTSQRLSARSQRQLLQWMVDDRVAGPLIRSVLPAGWFIADKTGAGERGARGIVALLGPNNKAERIVVIYLRDTPASMAERNQQIAGIGAALIEHWQR |  |  |  |  |  |  |  | Km [15]: 23 µM; kcat [15]: 1940 s⁻¹; Km [16]: 11 µM; kcat [16]: 220 s⁻¹; kcat [17]: < 0.1 s⁻¹; kcat [18]: < 0.1 s⁻¹; Km [19]: 31 µM; Km [20]: 40 µM; kcat [20]: 128 s⁻¹; Km [21]: 24 µM; kcat [21]: 1490 s⁻¹; kcat/Km [22]: 8.42e+07 M⁻¹ s⁻¹; kcat/Km [23]: 2e+07 M⁻¹ s⁻¹; kcat/Km [24]: 3.37e+07 M⁻¹ s⁻¹; kcat/Km [25]: 6.21e+07 M⁻¹ s⁻¹
